Test results as given in the NIST ThermoML archive (doi:10.1021/acs.jced.8b01039).

How the values were obtained:
[1] = Vibrating wire viscometry
[2] = xn = mol fraction of the nth substance listed; conditions: Vibrating wire viscometry

FC(F)C(F)(F)F [pentafluoroethane]
[1]
Conditions	viscosity [mPa·s]
273.2 K, 1440 kPa, Liquid	0.2154
273.2 K, 3260 kPa, Liquid	0.22
273.2 K, 4880 kPa, Liquid	0.224
273.2 K, 6650 kPa, Liquid	0.2283
273.2 K, 8370 kPa, Liquid	0.2323
273.2 K, 10120 kPa, Liquid	0.2364
273.2 K, 11770 kPa, Liquid	0.2403
273.2 K, 13330 kPa, Liquid	0.2438
293.3 K, 1680 kPa, Liquid	0.1739
293.3 K, 4160 kPa, Liquid	0.1801
293.3 K, 6420 kPa, Liquid	0.1854
293.3 K, 8490 kPa, Liquid	0.1902
293.3 K, 10920 kPa, Liquid	0.1952
293.3 K, 13210 kPa, Liquid	0.2004
293.3 K, 15530 kPa, Liquid	0.2052
293.3 K, 17700 kPa, Liquid	0.2097
313.2 K, 1960 kPa, Liquid	0.14
313.2 K, 3810 kPa, Liquid	0.1447
313.2 K, 5550 kPa, Liquid	0.1487
313.2 K, 7210 kPa, Liquid	0.1525
313.2 K, 9450 kPa, Liquid	0.1576
313.2 K, 11270 kPa, Liquid	0.1616
313.2 K, 13140 kPa, Liquid	0.1653
333.2 K, 630 kPa, Gas	0.0116
333.2 K, 810 kPa, Gas	0.0116
333.2 K, 1010 kPa, Gas	0.0117
333.2 K, 1300 kPa, Gas	0.0117

F/C=C/C(F)(F)F [trans-1,3,3,3-tetrafluoropropene] + FC(F)C(F)(F)F
[2], x2 = 0.4933
Conditions	viscosity [mPa·s]
252.3 K, 2010 kPa, Liquid	0.3181
252.3 K, 3020 kPa, Liquid	0.3224
273.2 K, 1290 kPa, Liquid	0.2388
273.2 K, 1990 kPa, Liquid	0.2407
273.2 K, 3010 kPa, Liquid	0.2451
294.2 K, 1240 kPa, Liquid	0.1821
294.2 K, 2000 kPa, Liquid	0.1861
294.2 K, 3010 kPa, Liquid	0.1906
323.2 K, 960 kPa, Gas	0.0133
343.2 K, 1060 kPa, Gas	0.0143
343.2 K, 1770 kPa, Gas	0.0149
363.2 K, 1960 kPa, Gas	0.016
363.2 K, 2770 kPa, Gas	0.0173
383.2 K, 3110 kPa, Gas	0.0182

F/C=C/C(F)(F)F [trans-1,3,3,3-tetrafluoropropene] + C=C(F)C(F)(F)F
[2], x1 = 0.5
Conditions	viscosity [mPa·s]
252.3 K, 1000 kPa, Liquid	0.2935
252.3 K, 2010 kPa, Liquid	0.2969
252.3 K, 3020 kPa, Liquid	0.3004
273.2 K, 1000 kPa, Liquid	0.2271
273.2 K, 1960 kPa, Liquid	0.2316
273.2 K, 2980 kPa, Liquid	0.2352
294.2 K, 1010 kPa, Liquid	0.179
294.2 K, 1980 kPa, Liquid	0.1824
294.2 K, 3000 kPa, Liquid	0.1858
348.2 K, 950 kPa, Gas	0.0132
368.2 K, 1050 kPa, Gas	0.0139
368.2 K, 1710 kPa, Gas	0.0148
388.2 K, 1910 kPa, Gas	0.0156
388.2 K, 2700 kPa, Gas	0.0168
403.2 K, 3020 kPa, Gas	0.0175

FC(F)C(F)(F)F [pentafluoroethane] + CC(F)F
[2], x1 = 0.5
Conditions	viscosity [mPa·s]
252.1 K, 1020 kPa, Liquid	0.2923
252.1 K, 2000 kPa, Liquid	0.2944
252.1 K, 2500 kPa, Liquid	0.2966
252.1 K, 3000 kPa, Liquid	0.299
252.1 K, 4000 kPa, Liquid	0.3024
263.1 K, 1510 kPa, Liquid	0.2558
263.1 K, 2010 kPa, Liquid	0.2574
263.1 K, 2510 kPa, Liquid	0.2593
263.1 K, 3020 kPa, Liquid	0.2612
263.1 K, 4010 kPa, Liquid	0.2643
274.5 K, 1510 kPa, Liquid	0.2181
274.5 K, 2000 kPa, Liquid	0.2198
274.5 K, 2510 kPa, Liquid	0.222
274.5 K, 3020 kPa, Liquid	0.2233
274.5 K, 4010 kPa, Liquid	0.2261
294.3 K, 1200 kPa, Liquid	0.1676
294.3 K, 1500 kPa, Liquid	0.1688
294.3 K, 2000 kPa, Liquid	0.1704
294.3 K, 3000 kPa, Liquid	0.1737
294.3 K, 4000 kPa, Liquid	0.1777
323.2 K, 990 kPa, Gas	0.0124
343.2 K, 1090 kPa, Gas	0.0132
343.2 K, 1800 kPa, Gas	0.014
363.2 K, 2010 kPa, Gas	0.0147
363.2 K, 2780 kPa, Gas	0.0157
383.2 K, 3130 kPa, Gas	0.0165

CC(F)(F)F [1,1,1-trifluoroethane] + C=C(F)C(F)(F)F
[2], x1 = 0.5
Conditions	viscosity [mPa·s]
252.1 K, 2010 kPa, Liquid	0.2421
252.1 K, 2520 kPa, Liquid	0.2439
252.1 K, 3030 kPa, Liquid	0.2451
273.2 K, 910 kPa, Liquid	0.1824
273.2 K, 2010 kPa, Liquid	0.1859
273.2 K, 2500 kPa, Liquid	0.187
273.2 K, 3000 kPa, Liquid	0.1888
294.4 K, 1250 kPa, Liquid	0.1424
294.4 K, 2010 kPa, Liquid	0.1453
294.4 K, 2510 kPa, Liquid	0.1469
294.4 K, 3020 kPa, Liquid	0.1482
323.2 K, 970 kPa, Gas	0.0124
343.2 K, 1060 kPa, Gas	0.0133
343.2 K, 1840 kPa, Gas	0.014
363.2 K, 2040 kPa, Gas	0.0149
363.2 K, 2750 kPa, Gas	0.016
383.2 K, 3070 kPa, Gas	0.0168

F/C=C/C(F)(F)F [trans-1,3,3,3-tetrafluoropropene] + CC(F)(F)F
[2], x2 = 0.5
Conditions	viscosity [mPa·s]
252.3 K, 1030 kPa, Liquid	0.2653
252.3 K, 2020 kPa, Liquid	0.2688
252.3 K, 3090 kPa, Liquid	0.2721
273.2 K, 1070 kPa, Liquid	0.2044
273.2 K, 2060 kPa, Liquid	0.208
273.2 K, 3130 kPa, Liquid	0.2113
293.2 K, 1130 kPa, Liquid	0.1573
293.2 K, 2080 kPa, Liquid	0.1612
293.2 K, 3090 kPa, Liquid	0.1652
323.2 K, 970 kPa, Gas	0.0123
346.2 K, 1080 kPa, Gas	0.0131
346.2 K, 1910 kPa, Gas	0.0137
363.2 K, 2120 kPa, Gas	0.0146
363.2 K, 2720 kPa, Gas	0.0155
383.2 K, 3040 kPa, Gas	0.0162
